Patent US20230406885A1, “CYCLIC PEPTIDES FOR TRAPPING INTERLEUKIN-1 BETA” (MERCK SHARP & DOHME LLC, priority 2022, published 2023)
*1 amine or outer side, *2 acyl side, *3 side chain or, on linkers, in order; H or OH if unused. Where a SMILES comes first, the peptide text is derived from it. [ ]: non-standard residue; d: D form. Trp(βS-Me,4-F) = C[C@@H](c1c[nH]c2cccc(F)c12)[C@H](N)C(=O)O; Bip(4'-COOH) = N[C@@H](Cc1ccc(-c2ccc(C(=O)O)cc2)cc1)C(=O)O; Phe(3-CH2NH2) = O=C([C@H](Cc1cccc(CN[*:3])c1)N[*:1])[*:2]; Phe(4-COOH) = N[C@@H](Cc1ccc(C(=O)O)cc1)C(=O)O; h3Pal(5-CN) = N#Cc1cncc(CC[C@H](N)C(=O)O)c1; Pro(4R-NH2) = N[C@H]1CN[C@H](C(=O)O)C1; Ala(4-THP) = N[C@@H](CC1CCOCC1)C(=O)O; hTyr = N[C@@H](CCc1ccc(O)cc1)C(=O)O; dDab = NCC[C@@H](N)C(=O)O; dNMeA = CN[C@H](C)C(=O)O; Nva = CCC[C@H](N)C(=O)O

target: T1, Recombinant human IL-1β (Homo sapiens, UniProt P01584); assay: IL-6 assay in MRC5 cells: inhibition of IL-1β induced IL-6 secretion (AlphaLISA); assay type: cell-based; conditions: inhibition of IL-1β induced IL-6 secretion in MRC5 cells; IL-1β pre-incubated 1 hour with compound; read-out: MRC5 IC50
T1 construct: purchased BioLegend 579404
T1 sequence (P01584 117-269): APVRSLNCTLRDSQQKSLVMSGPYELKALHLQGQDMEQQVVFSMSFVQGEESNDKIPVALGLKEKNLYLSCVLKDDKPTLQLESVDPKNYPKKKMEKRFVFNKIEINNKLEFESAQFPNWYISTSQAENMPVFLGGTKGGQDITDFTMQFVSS
Outline: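 IL-1β at 2×EC80 in seeding medium (EMEM, 0.025% BSA) preincubated 1 h at ambient temperature with compound, then 3000 MRC5 cells/well added and incubated overnight at 37 °C, 5% CO2. IL-6 in conditioned medium quantified by AlphaLISA; IC50 from 4-parameter logistic fit.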

Row | Compound | IC50
1 | C[C@@H]1C(=O)NCC(=O)N[C@@H](Cc2ccc(-c3ccc(C(=O)O)cc3)cc2)C(=O)N[C@@H](CCCCN)C(=O)N[C@@H](CC2CCOCC2)C(=O)N[C@H](C)C(=O)N[C@@H](CCc2cncc(C#N)c2)C(=O)N[C@@H](Cc2ccc(-c3ccc(C(=O)O)cc3)cc2)C(=O)N[C@@H](Cc2c[nH]c3ccccc23)C(=O)N[C@@H](Cc2ccc(C(=O)O)cc2)C(=O)NCC(=O)N2C[C@H](N)C[C@H]2C(=O)N[C@@H]([C@@H](C)c2c[nH]c3cccc(F)c23)C(=O)N[C@@H](CC(=O)O)C(=O)N1C [Example 64] (cyclo([Bip(4'-COOH)]W[Phe(4-COOH)]G[Pro(4R-NH2)][Trp(βS-Me,4-F)]D[dNMeA]G[Bip(4'-COOH)]K[Ala(4-THP)][dA][h3Pal(5-CN)])) | 0.0182 nM
2 | C[C@@H]1C(=O)NCC(=O)N[C@@H](Cc2ccc(-c3ccc(C(=O)O)cc3)cc2)C(=O)N[C@@H](CCCCN)C(=O)N[C@@H](CC2CCOCC2)C(=O)N[C@H](C)C(=O)N[C@@H](CCc2ccc(O)cc2)C(=O)N[C@@H](Cc2ccc(-c3ccc(C(=O)O)cc3)cc2)C(=O)N[C@@H](Cc2c[nH]c3ccccc23)C(=O)N[C@@H](Cc2ccc(C(=O)O)cc2)C(=O)NCC(=O)N2C[C@H](N)C[C@H]2C(=O)N[C@@H]([C@@H](C)c2c[nH]c3cccc(F)c23)C(=O)N[C@@H](CC(=O)O)C(=O)N1C [Example 65] (cyclo([Bip(4'-COOH)]W[Phe(4-COOH)]G[Pro(4R-NH2)][Trp(βS-Me,4-F)]D[dNMeA]G[Bip(4'-COOH)]K[Ala(4-THP)][dA][hTyr])) | 0.0158 nM
3 | CC(C)C[C@@H]1NC(=O)[C@H](CCCCN)NC(=O)[C@H](Cc2ccc(-c3ccc(C(=O)O)cc3)cc2)NC(=O)CNC(=O)[C@@H](C)N(C)C(=O)[C@H](CC(=O)O)NC(=O)[C@H]([C@@H](C)c2c[nH]c3cccc(F)c23)NC(=O)[C@@H]2C[C@@H](N)CN2C(=O)CNC(=O)[C@H](Cc2ccc(C(=O)O)cc2)NC(=O)[C@H](Cc2c[nH]c3ccccc23)NC(=O)[C@H](Cc2ccc(-c3ccc(C(=O)O)cc3)cc2)NC(=O)[C@H](CCc2cncc(C#N)c2)NC(=O)[C@@H](C)NC1=O [Example 66] (cyclo([Bip(4'-COOH)]W[Phe(4-COOH)]G[Pro(4R-NH2)][Trp(βS-Me,4-F)]D[dNMeA]G[Bip(4'-COOH)]KL[dA][h3Pal(5-CN)])) | 0.0299 nM
4 | CC(C)C[C@@H]1NC(=O)[C@H](CCCCN)NC(=O)[C@H](Cc2ccc(-c3ccc(C(=O)O)cc3)cc2)NC(=O)CNC(=O)[C@@H](C)N(C)C(=O)[C@H](CC(=O)O)NC(=O)[C@H]([C@@H](C)c2c[nH]c3cccc(F)c23)NC(=O)[C@@H]2C[C@@H](N)CN2C(=O)CNC(=O)[C@H](Cc2ccc(C(=O)O)cc2)NC(=O)[C@H](Cc2c[nH]c3ccccc23)NC(=O)[C@H](Cc2ccc(-c3ccc(C(=O)O)cc3)cc2)NC(=O)[C@H](CCc2ccc(O)cc2)NC(=O)[C@@H](CCN)NC1=O [Example 68] (cyclo([Bip(4'-COOH)]W[Phe(4-COOH)]G[Pro(4R-NH2)][Trp(βS-Me,4-F)]D[dNMeA]G[Bip(4'-COOH)]KL[dDab][hTyr])) | 0.296 nM
5 | CCC[C@@H]1NC(=O)[C@H](CCCCN)NC(=O)[C@H](Cc2ccc(-c3ccc(C(=O)O)cc3)cc2)NC(=O)CNC(=O)[C@@H](C)N(C)C(=O)[C@H](CC(=O)O)NC(=O)[C@H]([C@@H](C)c2c[nH]c3cccc(F)c23)NC(=O)[C@@H]2C[C@@H](N)CN2C(=O)CNC(=O)[C@H](Cc2ccc(C(=O)O)cc2)NC(=O)[C@H](Cc2c[nH]c3ccccc23)NC(=O)[C@H](Cc2ccc(-c3ccc(C(=O)O)cc3)cc2)NC(=O)[C@H](CCc2ccc(O)cc2)NC(=O)[C@@H](C)NC1=O [Example 71] (cyclo([Bip(4'-COOH)]W[Phe(4-COOH)]G[Pro(4R-NH2)][Trp(βS-Me,4-F)]D[dNMeA]G[Bip(4'-COOH)]K[Nva][dA][hTyr])) | 0.0926 nM
6 | C[C@@H]1C(=O)NCC(=O)N[C@@H](Cc2ccc(-c3ccc(C(=O)O)cc3)cc2)C(=O)N[C@@H](CCCCN)C(=O)N[C@@H](CO)C(=O)N[C@H](C)C(=O)N[C@@H](CCc2ccc(O)cc2)C(=O)N[C@@H](Cc2ccc(-c3ccc(C(=O)O)cc3)cc2)C(=O)N[C@@H](Cc2c[nH]c3ccccc23)C(=O)N[C@@H](Cc2ccc(C(=O)O)cc2)C(=O)NCC(=O)N2C[C@H](N)C[C@H]2C(=O)N[C@@H]([C@@H](C)c2c[nH]c3cccc(F)c23)C(=O)N[C@@H](CC(=O)O)C(=O)N1C [Example 72] (cyclo([Bip(4'-COOH)]W[Phe(4-COOH)]G[Pro(4R-NH2)][Trp(βS-Me,4-F)]D[dNMeA]G[Bip(4'-COOH)]KS[dA][hTyr])) | 0.107 nM
7 | CC(C)C[C@@H]1NC(=O)[C@H](Cc2cccc(CN)c2)NC(=O)[C@H](Cc2ccc(-c3ccc(C(=O)O)cc3)cc2)NC(=O)CNC(=O)[C@@H](C)N(C)C(=O)[C@H](CC(=O)O)NC(=O)[C@H]([C@@H](C)c2c[nH]c3cccc(F)c23)NC(=O)[C@@H]2C[C@@H](N)CN2C(=O)CNC(=O)[C@H](Cc2ccc(C(=O)O)cc2)NC(=O)[C@H](Cc2c[nH]c3ccccc23)NC(=O)[C@H](Cc2ccc(-c3ccc(C(=O)O)cc3)cc2)NC(=O)[C@H](CCc2ccc(O)cc2)NC(=O)[C@@H](C)NC1=O [Example 73] (cyclo([Bip(4'-COOH)]W[Phe(4-COOH)]G[Pro(4R-NH2)][Trp(βS-Me,4-F)]D[dNMeA]G[Bip(4'-COOH)][Phe(3-CH2NH2)]L[dA][hTyr])) | 0.0509 nM

Continued by falling IC50, values first:

Row | IC50 | Compound
8 | 0.334 nM | CC(C)C[C@@H]1NC(=O)[C@H](CCCCN)NC(=O)[C@H](Cc2ccc(-c3ccc(C(=O)O)cc3)cc2)NC(=O)CNC(=O)[C@@H](C)N(C)C(=O)[C@H](CC(=O)O)NC(=O)[C@H]([C@@H](C)c2c[nH]c3cccc(F)c23)NC(=O)[C@@H]2C[C@@H](N)CN2C(=O)CNC(=O)[C@H](Cc2ccc(C(=O)O)cc2)NC(=O)[C@H](Cc2c[nH]c3ccccc23)NC(=O)[C@H](Cc2ccc(-c3ccc(C(=O)O)cc3)cc2)NC(=O)[C@H](CCc2ccc(O)cc2)NC(=O)[C@@H](CO)NC1=O [Example 69] (cyclo([Bip(4'-COOH)]W[Phe(4-COOH)]G[Pro(4R-NH2)][Trp(βS-Me,4-F)]D[dNMeA]G[Bip(4'-COOH)]KL[dS][hTyr]))
9 | 0.0973 nM | CC(C)C[C@@H]1NC(=O)[C@H](CCCCN)NC(=O)[C@H](Cc2ccc(-c3ccc(C(=O)O)cc3)cc2)NC(=O)CNC(=O)[C@@H](C)N(C)C(=O)[C@H](CC(=O)O)NC(=O)[C@H]([C@@H](C)c2c[nH]c3cccc(F)c23)NC(=O)[C@@H]2C[C@@H](N)CN2C(=O)CNC(=O)[C@H](Cc2ccc(C(=O)O)cc2)NC(=O)[C@H](Cc2c[nH]c3ccccc23)NC(=O)[C@H](Cc2ccc(-c3ccc(C(=O)O)cc3)cc2)NC(=O)[C@H](CCc2ccc(O)cc2)NC(=O)CNC1=O [Example 70] (cyclo([Bip(4'-COOH)]W[Phe(4-COOH)]G[Pro(4R-NH2)][Trp(βS-Me,4-F)]D[dNMeA]G[Bip(4'-COOH)]KLG[hTyr]))
10 | 0.046 nM | CC(C)C[C@@H]1NC(=O)[C@H](CCCCN)NC(=O)[C@H](Cc2ccc(-c3ccc(C(=O)O)cc3)cc2)NC(=O)CNC(=O)[C@@H](C)N(C)C(=O)[C@H](CC(=O)O)NC(=O)[C@H]([C@@H](C)c2c[nH]c3cccc(F)c23)NC(=O)[C@@H]2C[C@@H](N)CN2C(=O)CNC(=O)[C@H](Cc2ccc(C(=O)O)cc2)NC(=O)[C@H](Cc2c[nH]c3ccccc23)NC(=O)[C@H](Cc2ccc(-c3ccc(C(=O)O)cc3)cc2)NC(=O)[C@H](CCc2ccc(O)cc2)NC(=O)[C@@H](C)NC1=O [Example 67] (cyclo([Bip(4'-COOH)]W[Phe(4-COOH)]G[Pro(4R-NH2)][Trp(βS-Me,4-F)]D[dNMeA]G[Bip(4'-COOH)]KL[dA][hTyr]))
